From ChEMBL document CHEMBL3885881, “DrugMatrix”

Species: Rattus norvegicus
Experiment: DrugMatrix - Regimen: Daily Repeat
Assay type: toxicity, organism-based, Sprague-Dawley
Design: regimen Daily Repeat, gender Male, age 6-8 weeks
Conditions: in vivo, po, route oral GAVAGE, […]; for ABSOLUTE BASOPHIL / BASOPHIL / NUCLEATED RED BLOOD CELLS / ABSOLUTE EOSINOPHIL / ABSOLUTE LYMPHOCYTE / ABSOLUTE MONOCYTE / ABSOLUTE SEGMENTED NEUTROPHIL / EOSINOPHIL / ERYTHROCYTE COUNT / HEMATOCRIT / LEUKOCYTE COUNT / MEAN CORPUSCULAR HEMOGLOBIN / MEAN CORPUSCULAR HEMOGLOBIN CONCENTRATION / MEAN CORPUSCULAR VOLUME / MONOCYTE / NEUTROPHIL / PLATELET COUNT: tissue Blood; for TOTAL BILIRUBIN / ALANINE AMINOTRANSFERASE / ALBUMIN / ALKALINE PHOSPHATASE / ASPARTATE AMINOTRANSFERASE / BLOOD UREA NITROGEN / CHLORIDE / CHOLESTEROL / CREATINE PHOSPHOKINASE / CREATININE / GLUCOSE / LACTATE DEHYDROGENASE / LIPASE / PHOSPHORUS / POTASSIUM / URIC ACID: tissue Plasma
[1] = 0 mg/kg, 72 h, dose level Control, time 3 day
[2] = 0 mg/kg, 120 h, dose level Control, time 5 day
[3] = 1 mg/kg, 72 h, dose level Low, time 3 day
[4] = 1 mg/kg, 120 h, dose level Low, time 5 day
[5] = 150 mg/kg, 72 h, dose level M1, time 3 day
[6] = 300 mg/kg, 72 h, dose level High, time 3 day
[7] = 300 mg/kg, 120 h, dose level High, time 5 day

## C[C@@H]1C[C@H]2[C@@H]3CCC4=CC(=O)C=C[C@]4(C)[C@@]3(F)[C@@H](O)C[C@]2(C)[C@@]1(O)C(=O)CO [DEXAMETHASONE]
[1]
  ABSOLUTE BASOPHIL: 0 CELLS/uL
  BASOPHIL: 0%
  NUCLEATED RED BLOOD CELLS: 0 /100WBC
  TOTAL BILIRUBIN: 0.2 mg/dL
[2]
  ABSOLUTE BASOPHIL: 0 CELLS/uL
  BASOPHIL: 0%
[3]
  ABSOLUTE BASOPHIL: 0 CELLS/uL
  ABSOLUTE EOSINOPHIL: 0 CELLS/uL
  ABSOLUTE LYMPHOCYTE: 386.33 CELLS/uL
  ABSOLUTE MONOCYTE: 54.33 CELLS/uL
  ABSOLUTE SEGMENTED NEUTROPHIL: 12226 CELLS/uL
  BASOPHIL: 0%
  EOSINOPHIL: 0%
  ERYTHROCYTE COUNT: 4.89 x10E6/uL
  HEMATOCRIT: 30.93%
  LEUKOCYTE COUNT: 12.67 x10E3/uL
  MEAN CORPUSCULAR HEMOGLOBIN: 25.53 pg
  MEAN CORPUSCULAR HEMOGLOBIN CONCENTRATION: 40.3 G/DL
  MEAN CORPUSCULAR VOLUME: 63.33 fL
  MONOCYTE: 0.33%
  NEUTROPHIL: 96%
  NUCLEATED RED BLOOD CELLS: 1 /100WBC
  PLATELET COUNT: 1088 x10E3/uL
  ALANINE AMINOTRANSFERASE: 118.33 u/L
  ALBUMIN: 4.1 G/DL
  ALKALINE PHOSPHATASE: 632 u/L
  ASPARTATE AMINOTRANSFERASE: 203 u/L
  BLOOD UREA NITROGEN: 28.33 mg/dL
  CHLORIDE: 95 MEQ/L
  CHOLESTEROL: 76.33 mg/dL
  CREATINE PHOSPHOKINASE: 789 u/L
  CREATININE: 0.16 mg/dL
  GLUCOSE: 441 mg/dL
  LACTATE DEHYDROGENASE: 205.67 u/L
  LIPASE: 45.67 u/L
  PHOSPHORUS: 10.57 mg/dL
  POTASSIUM: 5.98 MEQ/L
  TOTAL BILIRUBIN: 0.33 mg/dL
  URIC ACID: 1.2 mg/dL
[4]
  ABSOLUTE BASOPHIL: 0 CELLS/uL
  ABSOLUTE EOSINOPHIL: 0 CELLS/uL
  ABSOLUTE LYMPHOCYTE: 716 CELLS/uL
  ABSOLUTE MONOCYTE: 233 CELLS/uL
  ABSOLUTE SEGMENTED NEUTROPHIL: 18184.33 CELLS/uL
  BASOPHIL: 0%
  EOSINOPHIL: 0%
  ERYTHROCYTE COUNT: 3.43 x10E6/uL
  HEMATOCRIT: 25.35%
  LEUKOCYTE COUNT: 19.13 x10E3/uL
  MEAN CORPUSCULAR HEMOGLOBIN: 24.9 pg
  MEAN CORPUSCULAR HEMOGLOBIN CONCENTRATION: 40.75 G/DL
  MEAN CORPUSCULAR VOLUME: 59.67 fL
  MONOCYTE: 1.33%
  NEUTROPHIL: 94%
  NUCLEATED RED BLOOD CELLS: 3.33 /100WBC
  PLATELET COUNT: 832.67 x10E3/uL
  ALANINE AMINOTRANSFERASE: 247 u/L
  ALBUMIN: 3.87 G/DL
  ALKALINE PHOSPHATASE: 684.67 u/L
  ASPARTATE AMINOTRANSFERASE: 267.67 u/L
  BLOOD UREA NITROGEN: 20 mg/dL
  CHLORIDE: 95 MEQ/L
  CHOLESTEROL: 149.67 mg/dL
  CREATINE PHOSPHOKINASE: 312.33 u/L
  CREATININE: 0.11 mg/dL
  GLUCOSE: 438.67 mg/dL
  LACTATE DEHYDROGENASE: 287.33 u/L
  LIPASE: 21.67 u/L
  PHOSPHORUS: 9.83 mg/dL
  POTASSIUM: 5.94 MEQ/L
  TOTAL BILIRUBIN: 0.25 mg/dL
  URIC ACID: 1.43 mg/dL
[5]
  ABSOLUTE BASOPHIL: 0 CELLS/uL
  ABSOLUTE EOSINOPHIL: 0 CELLS/uL
  ABSOLUTE LYMPHOCYTE: 851.67 CELLS/uL
  ABSOLUTE MONOCYTE: 0 CELLS/uL
  ABSOLUTE SEGMENTED NEUTROPHIL: 8381.67 CELLS/uL
  BASOPHIL: 0%
  EOSINOPHIL: 0%
  ERYTHROCYTE COUNT: 3.49 x10E6/uL
  HEMATOCRIT: 22.2%
  LEUKOCYTE COUNT: 9.23 x10E3/uL
  MEAN CORPUSCULAR HEMOGLOBIN: 24.87 pg
  MEAN CORPUSCULAR HEMOGLOBIN CONCENTRATION: 39.17 G/DL
  MEAN CORPUSCULAR VOLUME: 63.47 fL
  MONOCYTE: 0%
  NEUTROPHIL: 90.33%
  NUCLEATED RED BLOOD CELLS: 0 /100WBC
  PLATELET COUNT: 661.67 x10E3/uL
  ALANINE AMINOTRANSFERASE: 222.67 u/L
  ALBUMIN: 4.03 G/DL
  ALKALINE PHOSPHATASE: 224 u/L
  ASPARTATE AMINOTRANSFERASE: 153.67 u/L
  BLOOD UREA NITROGEN: 40.67 mg/dL
  CHLORIDE: 88.33 MEQ/L
  CREATINE PHOSPHOKINASE: 139 u/L
  CREATININE: 0.28 mg/dL
  GLUCOSE: 361.33 mg/dL
  LACTATE DEHYDROGENASE: 175.33 u/L
  LIPASE: 12 u/L
  PHOSPHORUS: 7.7 mg/dL
  POTASSIUM: 3.29 MEQ/L
  TOTAL BILIRUBIN: 0.27 mg/dL
  URIC ACID: 0.6 mg/dL
[6]
  ABSOLUTE BASOPHIL: 0 CELLS/uL
  ABSOLUTE EOSINOPHIL: 101.33 CELLS/uL
  ABSOLUTE LYMPHOCYTE: 370.67 CELLS/uL
  ABSOLUTE MONOCYTE: 0 CELLS/uL
  ABSOLUTE SEGMENTED NEUTROPHIL: 13461.33 CELLS/uL
  BASOPHIL: 0%
  EOSINOPHIL: 0.67%
  ERYTHROCYTE COUNT: 4.56 x10E6/uL
  HEMATOCRIT: 29.6%
  LEUKOCYTE COUNT: 13.93 x10E3/uL
  MEAN CORPUSCULAR HEMOGLOBIN: 26.77 pg
  MEAN CORPUSCULAR HEMOGLOBIN CONCENTRATION: 41.3 G/DL
  MEAN CORPUSCULAR VOLUME: 64.73 fL
  MONOCYTE: 0%
  NEUTROPHIL: 96.67%
  NUCLEATED RED BLOOD CELLS: 3 /100WBC
  PLATELET COUNT: 922.33 x10E3/uL
  ALANINE AMINOTRANSFERASE: 191 u/L
  ALBUMIN: 3.07 G/DL
  ALKALINE PHOSPHATASE: 263 u/L
  ASPARTATE AMINOTRANSFERASE: 136.33 u/L
  BLOOD UREA NITROGEN: 17 mg/dL
  CHLORIDE: 90.33 MEQ/L
  CHOLESTEROL: 231 mg/dL
  CREATINE PHOSPHOKINASE: 714.67 u/L
  CREATININE: 0.13 mg/dL
  GLUCOSE: 404.67 mg/dL
  LACTATE DEHYDROGENASE: 193.33 u/L
  LIPASE: 55 u/L
  PHOSPHORUS: 10.2 mg/dL
  POTASSIUM: 3.86 MEQ/L
  TOTAL BILIRUBIN: 1.1 mg/dL
  URIC ACID: 1.1 mg/dL
[7]
  ABSOLUTE BASOPHIL: 0 CELLS/uL
  ABSOLUTE EOSINOPHIL: 0 CELLS/uL
  ABSOLUTE LYMPHOCYTE: 332 CELLS/uL
  ABSOLUTE MONOCYTE: 0 CELLS/uL
  ABSOLUTE SEGMENTED NEUTROPHIL: 16268 CELLS/uL
  BASOPHIL: 0%
  EOSINOPHIL: 0%
  ERYTHROCYTE COUNT: 2.89 x10E6/uL
  HEMATOCRIT: 17%
  LEUKOCYTE COUNT: 16.6 x10E3/uL
  MEAN CORPUSCULAR HEMOGLOBIN: 25.3 pg
  MEAN CORPUSCULAR HEMOGLOBIN CONCENTRATION: 42.9 G/DL
  MEAN CORPUSCULAR VOLUME: 58.9 fL
  MONOCYTE: 0%
  NEUTROPHIL: 98%
  NUCLEATED RED BLOOD CELLS: 0 /100WBC
  PLATELET COUNT: 777 x10E3/uL
  ALANINE AMINOTRANSFERASE: 1291 u/L
  ALBUMIN: 3.2 G/DL
  ALKALINE PHOSPHATASE: 579 u/L
  ASPARTATE AMINOTRANSFERASE: 470 u/L
  BLOOD UREA NITROGEN: 26 mg/dL
  CHLORIDE: 87 MEQ/L
  CHOLESTEROL: 201 mg/dL
  CREATINE PHOSPHOKINASE: 1188 u/L
  CREATININE: 0.1 mg/dL
  GLUCOSE: 443 mg/dL
  LACTATE DEHYDROGENASE: 750 u/L
  LIPASE: 9 u/L
  PHOSPHORUS: 10.7 mg/dL
  POTASSIUM: 2.68 MEQ/L
  TOTAL BILIRUBIN: 0.8 mg/dL
  URIC ACID: 0.7 mg/dL
